Source: patent US20080051387A1, “TETRAHYDROPYRIDO[3,4-D]PYRIMIDINES AND RELATED ANALOGUES” (priority 2006, published 2008)

Target: T1, chimeric human H3 receptor (Homo sapiens, UniProt Q9Y5N1)
T1 construct: rat Galpha-i2 (Gnai2, rat); made in house; host or cells: Sf9 insect cells (baculovirus); P2 membranes
Assay: Chimeric human H3 receptor screening GTP binding assay (inhibition of histamine-stimulated GTP-gamma35S binding, Example 8)
Format: biochemical
Conditions: 1 h; assay described in Example 8; symbol "!" in column headed Ki; read-out: Ki ("!": percent inhibition of agonist-induced GTP-gammaS binding to H3)
Procedure, shortened: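 Sf9 membranes co-expressing chimeric human H3 receptor and heterotrimeric G-protein (35 μg protein) incubated 60 min at room temperature with 4 μM compound, 1 μM histamine and 125 pM GTP-gamma35S in pH 7.4 buffer with 10 μM GDP. Filter-bound radioactivity, nonspecific (10 μM GTP-gammaS) subtracted, reported as % inhibition of histamine signal.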

T1 sequence (Q9Y5N1 with tags, fused parts or gaps): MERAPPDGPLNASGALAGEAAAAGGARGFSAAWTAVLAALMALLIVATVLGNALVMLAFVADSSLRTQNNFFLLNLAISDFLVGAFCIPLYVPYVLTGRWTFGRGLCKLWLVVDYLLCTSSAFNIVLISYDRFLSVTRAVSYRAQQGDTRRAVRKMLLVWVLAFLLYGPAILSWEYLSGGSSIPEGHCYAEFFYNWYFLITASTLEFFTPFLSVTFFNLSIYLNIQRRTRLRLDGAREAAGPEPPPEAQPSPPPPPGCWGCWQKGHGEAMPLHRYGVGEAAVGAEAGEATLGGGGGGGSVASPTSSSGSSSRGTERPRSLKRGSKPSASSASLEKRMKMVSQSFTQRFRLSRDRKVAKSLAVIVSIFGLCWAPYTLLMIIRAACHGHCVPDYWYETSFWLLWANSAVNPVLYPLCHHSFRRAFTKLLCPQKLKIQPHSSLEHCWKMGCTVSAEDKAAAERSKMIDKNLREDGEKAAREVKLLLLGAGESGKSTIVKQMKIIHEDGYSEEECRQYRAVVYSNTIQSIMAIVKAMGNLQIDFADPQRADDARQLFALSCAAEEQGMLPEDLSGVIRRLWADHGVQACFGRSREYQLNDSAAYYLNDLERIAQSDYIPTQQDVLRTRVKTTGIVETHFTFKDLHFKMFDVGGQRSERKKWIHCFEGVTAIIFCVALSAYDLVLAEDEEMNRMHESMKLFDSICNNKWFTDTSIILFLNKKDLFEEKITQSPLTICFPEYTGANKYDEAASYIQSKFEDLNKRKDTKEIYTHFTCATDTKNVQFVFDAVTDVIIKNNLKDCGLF

Inhibition at 4 µM, ≥ 90%:
Cc1ccc(C(=O)N2CCc3cnc(N4CCN(C5CCC5)CC4)nc3CC2)cc1N [Compound 532, 5-{[2-(4-cyclobutylpiperazin-1-yl)-5,6,8,9-tetrahydro-7H-pyrimido[4,5-d]azepin-7-yl]carbonyl}-2-methylaniline]
O=C(c1cc(-c2ccccc2)nc2ccccc12)N1CCc2cnc(N3CCN(C4CCC4)CC3)nc2CC1 [Compound 488, 2-(4-cyclobutylpiperazin-1-yl)-7-[(2-phenylquinolin-4-yl)carbonyl]-6,7,8,9-tetrahydro-5H-pyrimido[4,5-d]azepine]
CSc1ncccc1C(=O)N1CCc2cnc(N3CCN(C4CCC4)CC3)nc2CC1 [Compound 501, 2-(4-cyclobutylpiperazin-1-yl)-7-{[2-(methylthio)pyridin-3-yl]carbonyl}-6,7,8,9-tetrahydro-5H-pyrimido[4,5-d]azepine]
Cc1ccc(Oc2ccccc2C(=O)N2CCc3cnc(N4CCN(C5CCC5)CC4)nc3CC2)cc1 [Compound 418, 2-(4-cyclobutylpiperazin-1-yl)-7-[2-(4-methylphenoxy)benzoyl]-6,7,8,9-tetrahydro-5H-pyrimido[4,5-d]azepine]
O=C(/C=C/c1cccc(F)c1F)N1CCc2cnc(N3CCN(C4CCC4)CC3)nc2CC1 [Compound 554, 2-(4-cyclobutylpiperazin-1-yl)-7-[(2E)-3-(2,3-difluorophenyl)prop-2-enoyl]-6,7,8,9-tetrahydro-5H-pyrimido[4,5-d]azepine]
COc1cc(C(=O)N2CCc3cnc(N4CCN(C5CCC5)CC4)nc3CC2)cc(OC)c1OC [Compound 384, 2-(4-cyclobutylpiperazin-1-yl)-7-(3,4,5-trimethoxybenzoyl)-6,7,8,9-tetrahydro-5H-pyrimido[4,5-d]azepine]

Same assay, conditions: 1 h; assay of Example 8; symbol "!" in column headed Ki; read-out: percent inhibition of agonist-induced GTP-gammaS binding to H3

Inhibition at 4 µM, ≥ 90%:
CC(Oc1ccccc1)C(=O)N1CCc2cnc(N3CCN(C4CCC4)CC3)nc2CC1 (stereo not shown) [Compound 339, 2-(4-cyclobutylpiperazin-1-yl)-7-(2-phenoxypropanoyl)-6,7,8,9-tetrahydro-5H-pyrimido[4,5-d]azepine]
O=C(COc1ccc2ccccc2c1)N1CCc2cnc(N3CCN(C4CCC4)CC3)nc2CC1 [Compound 336, 2-(4-cyclobutylpiperazin-1-yl)-7-[(2-naphthyloxy)acetyl]-6,7,8,9-tetrahydro-5H-pyrimido[4,5-d]azepine]
Cc1ccc(OCC(=O)N2CCc3cnc(N4CCN(C5CCC5)CC4)nc3CC2)cc1 [Compound 316, 2-(4-cyclobutylpiperazin-1-yl)-7-[(4-methylphenoxy)acetyl]-6,7,8,9-tetrahydro-5H-pyrimido[4,5-d]azepine]
CCOc1ccc(CC(=O)N2CCc3cnc(N4CCN(C5CCC5)CC4)nc3CC2)cc1OC [Compound 275, 2-(4-cyclobutylpiperazin-1-yl)-7-[(4-ethoxy-3-methoxyphenyl)acetyl]-6,7,8,9-tetrahydro-5H-pyrimido[4,5-d]azepine]
O=C(C1CCCCCC1)N1CCc2cnc(N3CCN(C4CCC4)CC3)nc2CC1 [Compound 219, 2-(4-cyclobutylpiperazin-1-yl)-7-(cycloheptylcarbonyl)-6,7,8,9-tetrahydro-5H-pyrimido[4,5-d]azepine]
CCCCc1ccc(C(=O)N2CCc3cnc(N4CCN(C5CCC5)CC4)nc3CC2)cc1 [Compound 363, 7-(4-butylbenzoyl)-2-(4-cyclobutylpiperazin-1-yl)-6,7,8,9-tetrahydro-5H-pyrimido[4,5-d]azepine]
Clc1ccc(CN2CCc3cnc(N4CCN(C5CCC5)CC4)nc3CC2)c(Cl)c1 [Compound 266, 2-(4-cyclobutylpiperazin-1-yl)-7-(2,4-dichlorobenzyl)-6,7,8,9-tetrahydro-5H-pyrimido[4,5-d]azepine]
COc1cc(CC(=O)N2CCc3cnc(N4CCN(C5CCC5)CC4)nc3CC2)cc(OC)c1 [Compound 280, 2-(4-cyclobutylpiperazin-1-yl)-7-[(3,5-dimethoxyphenyl)acetyl]-6,7,8,9-tetrahydro-5H-pyrimido[4,5-d]azepine]
Clc1ccccc1CN1CCc2cnc(N3CCN(C4CCC4)CC3)nc2CC1 [Compound 265, 7-(2-chlorobenzyl)-2-(4-cyclobutylpiperazin-1-yl)-6,7,8,9-tetrahydro-5H-pyrimido[4,5-d]azepine]
O=C(c1ccccc1F)N1CCc2cnc(N3CCN(C4CCC4)CC3)nc2CC1 [Compound 195, 2-(4-cyclobutylpiperazin-1-yl)-7-(2-fluorobenzoyl)-6,7,8,9-tetrahydro-5H-pyrimido[4,5-d]azepine]
O=C(C1CC1)N1CCc2cnc(N3CCN(C4CCC4)CC3)nc2CC1 [Compound 215, 2-(4-cyclobutylpiperazin-1-yl)-7-(cyclopropylcarbonyl)-6,7,8,9-tetrahydro-5H-pyrimido[4,5-d]azepine]
CCCCN1CCc2cnc(N3CCN(C4CCC4)CC3)nc2CC1 [Compound 248, 7-butyl-2-(4-cyclobutylpiperazin-1-yl)-6,7,8,9-tetrahydro-5H-pyrimido[4,5-d]azepine]
c1ccc2nc(CN3CCc4cnc(N5CCN(C6CCC6)CC5)nc4CC3)ccc2c1 [Compound 259, 2-(4-cyclobutylpiperazin-1-yl)-7-(quinolin-2-ylmethyl)-6,7,8,9-tetrahydro-5H-pyrimido[4,5-d]azepine]
COCCC(=O)N1CCc2cnc(N3CCN(C4CCC4)CC3)nc2CC1 [Compound 214, 2-(4-cyclobutylpiperazin-1-yl)-7-(3-methoxypropanoyl)-6,7,8,9-tetrahydro-5H-pyrimido[4,5-d]azepine]
COc1ccccc1CC(=O)N1CCc2cnc(N3CCN(C4CCC4)CC3)nc2CC1 [Compound 306, 2-(4-cyclobutylpiperazin-1-yl)-7-[(2-methoxyphenyl)acetyl]-6,7,8,9-tetrahydro-5H-pyrimido[4,5-d]azepine]

Same assay, conditions: symbol ! in Ki; test compound 4 μM, 1 μM histamine; read-out: percent inhibition of agonist-induced GTP-gammaS binding to H3

Inhibition at 4 µM, ≥ 90%:
c1cc(N2CCCC2)ccc1CN1CCc2nc(N3CCN(C4CCC4)CC3)ncc2C1 [Compound 647, 2-(4-cyclobutylpiperazin-1-yl)-6-(4-pyrrolidin-1-ylbenzyl)-5,6,7,8-tetrahydropyrido[4,3-d]pyrimidine]
Cc1ccccc1C(=O)N1CCc2c(ncnc2N2CCN(C3CCC3)CC2)C1 [Compound 25, 4-(4-cyclobutylpiperazin-1-yl)-7-(2-methylbenzoyl)-5,6,7,8-tetrahydropyrido[3,4-d]pyrimidine]
O=C(CC1CCCCC1)N1CCc2c(ncnc2N2CCN(C3CCC3)CC2)C1 [Compound 48, 4-(4-cyclobutylpiperazin-1-yl)-7-(cyclohexylacetyl)-5,6,7,8-tetrahydropyrido[3,4-d]pyrimidine]
O=C(c1ccno1)N1CCc2c(ncnc2N2CCN(C3CCC3)CC2)C1 [Compound 36, 4-(4-cyclobutylpiperazin-1-yl)-7-(isoxazol-5-ylcarbonyl)-5,6,7,8-tetrahydropyrido[3,4-d]pyrimidine]
COc1ccc(OC)c(C(C)N2CCc3c(ncnc3N3CCN(C4CCC4)CC3)C2)c1 (stereo not shown) [Compound 132, 4-(4-cyclobutylpiperazin-1-yl)-7-[1-(2,5-dimethoxyphenyl)ethyl]-5,6,7,8-tetrahydropyrido[3,4-d]pyrimidine]
CCCCN1CCc2nc(N3CCN(C4CCC4)CC3)ncc2C1 [Compound 628, 6-butyl-2-(4-cyclobutylpiperazin-1-yl)-5,6,7,8-tetrahydropyrido[4,3-d]pyrimidine]
O=C(c1cccnc1)N1CCc2c(ncnc2N2CCN(C3CCC3)CC2)C1 [Compound 34, 4-(4-cyclobutylpiperazin-1-yl)-7-(pyridin-3-ylcarbonyl)-5,6,7,8-tetrahydropyrido[3,4-d]pyrimidine]
Cc1c(F)cccc1CN1CCc2nc(N3CCN(C4CCC4)CC3)ncc2C1 [Compound 644, 2-(4-cyclobutylpiperazin-1-yl)-6-(3-fluoro-2-methylbenzyl)-5,6,7,8-tetrahydropyrido[4,3-d]pyrimidine]
c1ccc2c(CN3CCc4c(ncnc4N4CCN(C5CCC5)CC4)C3)ccnc2c1 [Compound 72, 4-(4-cyclobutylpiperazin-1-yl)-7-(quinolin-4-ylmethyl)-5,6,7,8-tetrahydropyrido[3,4-d]pyrimidine]
CC(c1ccc2c(c1)OCCO2)N1CCc2c(ncnc2N2CCN(C3CCC3)CC2)C1 (stereo not shown) [Compound 129, 4-(4-cyclobutylpiperazin-1-yl)-7-[1-(2,3-dihydro-1,4-benzodioxin-6-yl)ethyl]-5,6,7,8-tetrahydropyrido[3,4-d]pyrimidine]
Cc1ccc(CN2CCc3c(ncnc3N3CCN(C4CCC4)CC3)C2)cc1 [Compound 70, 4-(4-cyclobutylpiperazin-1-yl)-7-(4-methylbenzyl)-5,6,7,8-tetrahydropyrido[3,4-d]pyrimidine]
Fc1ccccc1CN1CCc2c(ncnc2N2CCN(C3CCC3)CC2)C1 [Compound 66, 4-(4-cyclobutylpiperazin-1-yl)-7-(2-fluorobenzyl)-5,6,7,8-tetrahydropyrido[3,4-d]pyrimidine]
Cc1ncccc1C(=O)N1CCc2c(ncnc2N2CCN(C3CCC3)CC2)C1 [Compound 38, 4-(4-cyclobutylpiperazin-1-yl)-7-[(2-methylpyridin-3-yl)carbonyl]-5,6,7,8-tetrahydropyrido[3,4-d]pyrimidine]
